Experimental data: PubChem BioAssay AID2060512 (Molecular Pharmacology Branch, DTP, NCI, 2025)

Tested on: 186277-243-T-J2-PDC complex spheroid viability
Assay: Anticancer human tumor 186277-243-T-J2-PDC patient-derived colon adenocarcinoma cell line growth inhibition [GQUAD]
Settings: for IC50: curve of first compound; for viability, T/C: stronger effect = lower value
In short: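 Tumor cells were grown as complex spheroids with HUVEC endothelial cells and mesenchymal stem cells as stroma. G-quadruplex stabilizers were combined with targeted agents over half-log dilutions from near the clinical Cmax, or from 10 microM.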

[1] = second compound 0.0316 µM, first compound 0.0316 µM
[2] = second compound 0.0316 µM, first compound 0.1 µM
[3] = second compound 0.0316 µM, first compound 0.316 µM
[4] = second compound 0.0316 µM, first compound 1 µM
[5] = second compound 0.0316 µM, first compound 3.16 µM
[6] = second compound 0.0316 µM, first compound 10 µM
[7] = second compound 0.1 µM, first compound 0.0316 µM
[8] = second compound 0.1 µM, first compound 0.1 µM
[9] = second compound 0.1 µM, first compound 0.316 µM
[10] = second compound 0.1 µM, first compound 1 µM
[11] = second compound 0.1 µM, first compound 3.16 µM
[12] = second compound 0.1 µM, first compound 10 µM
[13] = second compound 0.316 µM, first compound 0.0316 µM
[14] = second compound 0.316 µM, first compound 0.1 µM
[15] = second compound 0.316 µM, first compound 0.316 µM
[16] = second compound 0.316 µM, first compound 1 µM
[17] = second compound 0.316 µM, first compound 3.16 µM
[18] = second compound 0.316 µM, first compound 10 µM
[19] = second compound 1 µM, first compound 0.0316 µM
[20] = second compound 1 µM, first compound 0.1 µM
[21] = second compound 1 µM, first compound 0.316 µM
[22] = second compound 1 µM, first compound 1 µM
[23] = second compound 1 µM, first compound 3.16 µM
[24] = second compound 1 µM, first compound 10 µM
[25] = second compound 3.16 µM, first compound 0.0316 µM
[26] = second compound 3.16 µM, first compound 0.1 µM
[27] = second compound 3.16 µM, first compound 0.316 µM
[28] = second compound 3.16 µM, first compound 1 µM
[29] = second compound 3.16 µM, first compound 3.16 µM
[30] = second compound 3.16 µM, first compound 10 µM
[31] = second compound 10 µM, first compound 0.0316 µM
[32] = second compound 10 µM, first compound 0.1 µM
[33] = second compound 10 µM, first compound 0.316 µM
[34] = second compound 10 µM, first compound 1 µM
[35] = second compound 10 µM, first compound 3.16 µM
[36] = second compound 10 µM, first compound 10 µM
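Further: spheroids exposed to drugs for 7 days.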
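Wherever viability, T/C is given: 100% = DMSO vehicle control viability.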

## CC1COCCN1c1cc(C2(O)CC3CCC(C2)O3)c2cnn(-c3ccn[nH]3)c2n1 (stereo unspecified) + CN(C)c1ccc(Nc2c3ccc(NC(=O)CCN4CCCC4)cc3nc3cc(NC(=O)CCN4CCCC4)ccc23)cc1
Second compound 0.0316 µM
  IC50: 32.6 nM
Second compound 0.1 µM
  IC50: 33.1 nM
Second compound 0.316 µM
  IC50: 34.7 nM
Second compound 1 µM
  IC50: < 31.6 nM
Second compound 3.16 µM
  IC50: < 31.6 nM
Second compound 10 µM
  IC50: < 31.6 nM
[1]
  viability, T/C: 51.2%
[2]
  viability, T/C: 8.79%
[3]
  viability, T/C: 6.01%
[4]
  viability, T/C: 4%
[5]
  viability, T/C: 5.01%
[6]
  viability, T/C: 3.88%
[7]
  viability, T/C: 51.8%
[8]
  viability, T/C: 12%
[9]
  viability, T/C: 7.24%
[10]
  viability, T/C: 3.82%
[11]
  viability, T/C: 4.81%
[12]
  viability, T/C: 3.87%
[13]
  viability, T/C: 53.7%
[14]
  viability, T/C: 8.92%
[15]
  viability, T/C: 4.46%
[16]
  viability, T/C: 3.99%
[17]
  viability, T/C: 5.18%
[18]
  viability, T/C: 3.41%
[19]
  viability, T/C: 42.9%
[20]
  viability, T/C: 9.66%
[21]
  viability, T/C: 5.45%
[22]
  viability, T/C: 4.14%
[23]
  viability, T/C: 5.22%
[24]
  viability, T/C: 3.81%
[25]
  viability, T/C: 47%
[26]
  viability, T/C: 12.8%
[27]
  viability, T/C: 5.73%
[28]
  viability, T/C: 3.69%
[29]
  viability, T/C: 4.72%
[30]
  viability, T/C: 3.34%
[31]
  viability, T/C: 46.5%
[32]
  viability, T/C: 11.9%
[33]
  viability, T/C: 6.88%
[34]
  viability, T/C: 3%
[35]
  viability, T/C: 3.63%
[36]
  viability, T/C: 2.56%

## CCc1c2c(nc3ccc(O)cc13)-c1cc3c(c(=O)n1C2)COC(=O)[C@]3(O)CC + CN(C)c1ccc(Nc2c3ccc(NC(=O)CCN4CCCC4)cc3nc3cc(NC(=O)CCN4CCCC4)ccc23)cc1
Second compound 0.0316 µM
  IC50: 5.9 nM
Second compound 0.1 µM
  IC50: 6.26 nM
Second compound 0.316 µM
  IC50: 6.31 nM
Second compound 1 µM
  IC50: 5.78 nM
Second compound 3.16 µM
  IC50: 7.75 nM
Second compound 10 µM
  IC50: 7.5 nM
Second compound 0.0316 µM, first compound 0.000999 µM
  viability, T/C: 97.1%
Second compound 0.0316 µM, first compound 0.00316 µM
  viability, T/C: 62.1%
Second compound 0.0316 µM, first compound 0.00999 µM
  viability, T/C: 40.6%
[1]
  viability, T/C: 23.8%
Second compound 0.0316 µM, first compound 0.0999 µM
  viability, T/C: 17.1%
[3]
  viability, T/C: 13.1%
Second compound 0.1 µM, first compound 0.000999 µM
  viability, T/C: 99.8%
Second compound 0.1 µM, first compound 0.00316 µM
  viability, T/C: 60.1%
Second compound 0.1 µM, first compound 0.00999 µM
  viability, T/C: 44.3%
[7]
  viability, T/C: 25.8%
Second compound 0.1 µM, first compound 0.0999 µM
  viability, T/C: 15.8%
[9]
  viability, T/C: 11.6%
Second compound 0.316 µM, first compound 0.000999 µM
  viability, T/C: 107%
Second compound 0.316 µM, first compound 0.00316 µM
  viability, T/C: 69%
Second compound 0.316 µM, first compound 0.00999 µM
  viability, T/C: 36%
[13]
  viability, T/C: 23.7%
Second compound 0.316 µM, first compound 0.0999 µM
  viability, T/C: 15.7%
[15]
  viability, T/C: 11.1%
Second compound 1 µM, first compound 0.000999 µM
  viability, T/C: 82.9%
Second compound 1 µM, first compound 0.00316 µM
  viability, T/C: 59.7%
Second compound 1 µM, first compound 0.00999 µM
  viability, T/C: 41.6%
[19]
  viability, T/C: 25.4%
Second compound 1 µM, first compound 0.0999 µM
  viability, T/C: 15.8%
[21]
  viability, T/C: 10.4%
Second compound 3.16 µM, first compound 0.000999 µM
  viability, T/C: 92.8%
Second compound 3.16 µM, first compound 0.00316 µM
  viability, T/C: 63.4%
Second compound 3.16 µM, first compound 0.00999 µM
  viability, T/C: 49.4%
[25]
  viability, T/C: 27.1%
Second compound 3.16 µM, first compound 0.0999 µM
  viability, T/C: 16.3%
[27]
  viability, T/C: 8.68%
Second compound 10 µM, first compound 0.000999 µM
  viability, T/C: 83%
Second compound 10 µM, first compound 0.00316 µM
  viability, T/C: 63.1%
Second compound 10 µM, first compound 0.00999 µM
  viability, T/C: 45.5%
[31]
  viability, T/C: 31.4%
Second compound 10 µM, first compound 0.0999 µM
  viability, T/C: 16.4%
[33]
  viability, T/C: 9.38%

## Nc1ccn(C2OC(CO)C(O)C2(F)F)c(=O)n1 (stereo unspecified) + CN(C)c1ccc(Nc2c3ccc(NC(=O)CCN4CCCC4)cc3nc3cc(NC(=O)CCN4CCCC4)ccc23)cc1
Second compound 0.0316 µM
  IC50: < 31.6 nM
Second compound 0.1 µM
  IC50: < 31.6 nM
Second compound 0.316 µM
  IC50: < 31.6 nM
Second compound 1 µM
  IC50: < 31.6 nM
Second compound 3.16 µM
  IC50: < 31.6 nM
Second compound 10 µM
  IC50: < 31.6 nM
[1]
  viability, T/C: 10.1%
[2]
  viability, T/C: 9.64%
[3]
  viability, T/C: 9.07%
[4]
  viability, T/C: 7.19%
[5]
  viability, T/C: 8.19%
[6]
  viability, T/C: 8.56%
[7]
  viability, T/C: 10.4%
[8]
  viability, T/C: 7.92%
[9]
  viability, T/C: 8%
[10]
  viability, T/C: 7.8%
[11]
  viability, T/C: 8.64%
[12]
  viability, T/C: 8.31%
[13]
  viability, T/C: 10.9%
[14]
  viability, T/C: 7.8%
[15]
  viability, T/C: 7.03%
[16]
  viability, T/C: 7%
[17]
  viability, T/C: 8.54%
[18]
  viability, T/C: 8.47%
[19]
  viability, T/C: 8.71%
[20]
  viability, T/C: 7.38%
[21]
  viability, T/C: 6.7%
[22]
  viability, T/C: 6.93%
[23]
  viability, T/C: 8.1%
[24]
  viability, T/C: 7.47%
[25]
  viability, T/C: 8.12%
[26]
  viability, T/C: 7.76%
[27]
  viability, T/C: 7.81%
[28]
  viability, T/C: 7.28%
[29]
  viability, T/C: 8%
[30]
  viability, T/C: 7.61%
[31]
  viability, T/C: 8.33%
[32]
  viability, T/C: 7.59%
[33]
  viability, T/C: 7.12%
[34]
  viability, T/C: 6.96%
[35]
  viability, T/C: 7.9%
[36]
  viability, T/C: 7.91%
